The values that follow come from the METLIN SMRT retention time set (Domingo-Almenara et al. 2019).

This data set can be described thus: gradient 5% acetonitrile 3 min, to 50% in 2 min, to 85% in 15 min, held 3 min, 100 µL/min. The settings on record: column: Zorbax Extend-C18 2.1 x 50 mm; eluents: water / acetonitrile, 0.1% formic acid. The essentials: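 Each retention time is based on an adduct peak selected computationally and verified by manual inspection. Measurements used HPLC–quadrupole time-of-flight mass spectrometry in positive and negative ionization mode on mixtures of ~100 pure standards. Chromatography ran on a Zorbax Extend-C18 column (2.1 × 50 mm, 1.8 μm) at 100 μL/min with water and acetonitrile, each containing 0.1% formic acid, and dead and dwell volumes of 40 μL and 900 μL.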
Take `O=c1n(Cc2ccc(Cl)cc2)nc2c(S(=O)(=O)N3CCCCC3)cccn12`: the RP-LC retention time came to 919 s.

For the compound `COC1C(=O)N(c2cccc(F)c2)C12CCN(S(=O)(=O)Cc1ccccc1)CC2` (stereo not drawn), the RP-LC retention time was determined as 1020 s.

In turn, `CC(C)c1cc(N2CCN(C(=O)C3CC3)CC2)nc2nncn12` yielded an RP-LC retention time of 586 s.

In the case of `Cc1cc2c(c(=O)n(-c3ccc(F)cc3)c(=O)n2CC(=O)Nc2cccc(C(F)(F)F)c2)n1C`, the RP-LC retention time stood at 933 s.

`CC(C)(C)c1ccc(S(=O)(=O)N2CCc3nc[nH]c3C2)cc1` gave an RP-LC retention time of 683 s.

`COc1cc([C@@H]2c3cc4c(cc3[C@H](O)[C@@H](CO)[C@@H]2C(=O)NC(C)C)OCO4)cc(OC)c1OC` had an RP-LC retention time of 660 s.

With `COc1ccc(-c2nnc(-c3cccc(S(=O)(=O)N4CCCC4)c3)o2)cc1`, the RP-LC retention time came out at 963 s.

`Cc1cc2nn(CC(=O)N3CCCc4ccccc43)c(=O)n2c(Nc2ccc(F)cc2)n1` yielded an RP-LC retention time of 1060 s.

For `Cc1cc(C)nc(SCC(=O)Nc2nc(-c3ccccc3)c(-c3ccccc3)o2)n1`, the RP-LC retention time was 1050 s.

The compound `CCCc1nc(NC(C)c2ccc(OC)c(OC)c2)ncc1C(=O)O` (stereo not drawn) gave an RP-LC retention time of 750 s.

`O=C(c1ccc(CN2C(=O)CSc3ncccc32)cc1)N1CCN(c2ccccn2)CC1` yielded an RP-LC retention time of 710 s.

With `O=C(Cn1c(=O)c2nncn2c2ncccc21)N1CCN(c2cccc(Cl)c2)CC1`, the RP-LC retention time amounted to 750 s.

`COc1cccc(-n2c(N3CCCC(C(=O)NCCN4CCCCC4)C3)nc3ccsc3c2=O)c1` (stereo not drawn) registered an RP-LC retention time of 632 s.

Turning to `N#CCSc1nnc2sc3ccccc3n12`, the RP-LC retention time worked out at 671 s.

Take `CCn1cc(CCN2CCN(S(=O)(=O)c3cc(C)cc(C)c3)CC2)c2cccnc21`: the RP-LC retention time came to 698 s.

On to `Cc1ccn2cc(-c3ccc(NC(=O)CCC4CCCC4)cc3)nc2n1`, for which the RP-LC retention time was 722 s.

`c1ccc(-c2nc3cc(-c4noc(-c5cccnc5)n4)ccc3o2)cc1`: the RP-LC retention time was 1290 s.

The compound `CC(NC(=O)CCc1c(-c2ccc(Cl)cc2)nc2ccccn12)c1ccccc1` (stereo not drawn) had an RP-LC retention time of 700 s.

For `C=Cc1ccc(CN2N=C(C(=O)N3CCOCC3)S(=O)(=O)c3ccc(Cl)cc32)cc1`, the RP-LC retention time is 951 s.

Compound `CCn1c(C2CCN(S(=O)(=O)c3ccc4c(c3)CCCC4)C2)nc2ccncc21` (stereo not drawn) showed an RP-LC retention time of 585 s.

The compound `Cc1ccc(C)c(N2CCN(c3ccnc(SCC(=O)Nc4ccc(F)cc4C)n3)CC2)c1` had an RP-LC retention time of 1010 s.

`Cc1nn(C(C)C(=O)NCCCN2CCCC2)c(=O)c2nn(-c3ccccc3)c(C)c12` (stereo not drawn): the RP-LC retention time is 614 s.

`CCn1c(CCC(=O)NCc2ccc(F)c(Cl)c2)nc2c(C)cccc2c1=O`: the RP-LC retention time worked out at 916 s.

Take `CC(=O)Nc1ccc(Br)cc1`: the RP-LC retention time worked out at 680 s.

For the compound `Cc1nc2cc(-c3noc(C(C)Oc4ccccc4)n3)ccc2n(C2CCCC2)c1=O` (stereo not drawn), the RP-LC retention time worked out at 1310 s.

Compound `CCOc1ccc(CC(=O)OCn2nnc3ccccc3c2=O)cc1` returned an RP-LC retention time of 914 s.

`Cc1c(Cl)cccc1N1C(=O)CN(S(C)(=O)=O)CC1(C)C(=O)NCc1ccccc1` (stereo not drawn) had an RP-LC retention time of 850 s.

The compound `CCOC(=O)c1nc(Nc2ccc(Cl)cc2)c2ccccc2n1` came in with an RP-LC retention time of 957 s.

On to `COc1ccc(-c2nc3cnccn3c2Nc2ccc(C(=O)O)cc2)cc1`, for which the RP-LC retention time worked out at 662 s.

In the case of `CN1CCN(CCNC(=O)C2CCCN(c3ncnc4c3nc3n4CCCCC3)C2)CC1` (stereo not drawn), the RP-LC retention time came out at 570 s.

In turn, `O=c1c(=O)n(-c2cccc(Cl)c2)ccn1Cc1nc(-c2ccccc2)no1` registered an RP-LC retention time of 875 s.

`CN1C(=O)C(C)(C)c2cc(S(=O)(=O)N3CCN(c4ccccn4)CC3)ccc21` showed an RP-LC retention time of 633 s.

The compound `Cc1ccc(NC(=O)N2CCC(N3CCN(Cc4ccc(F)cc4)C(=O)C3=O)CC2)cc1C` showed an RP-LC retention time of 774 s.

`CCOCc1nc(C2CCCN(C(=O)NC3CCCC3)C2)no1` (stereo not drawn): the RP-LC retention time amounted to 766 s.

The compound `COc1ccc(C2Cn3nnc(C(=O)NC4CCCCCC4)c3CO2)cc1` (stereo not drawn) yielded an RP-LC retention time of 1040 s.

Compound `Cn1ncc2c(N3CCSCC3)nc(C(=O)Nc3ccccc3)nc21` registered an RP-LC retention time of 819 s.

With `CCn1cc(S(=O)(=O)N2[C@H]3CC[C@@H]2c2cnc(-c4ccccc4)nc2C3)cn1`, the RP-LC retention time was 868 s.

The compound `COc1ccc(NC(=O)Nc2c(-c3cccc(C)c3)nc3ccccn23)cc1Cl` showed an RP-LC retention time of 702 s.

`COc1cn(CC(=O)Nc2ccccc2C)c(CSc2nc(C)cs2)cc1=O` yielded an RP-LC retention time of 628 s.

The compound `COCc1noc([C@@H]2CC(F)(F)CN2C(=O)c2c(C)noc2C)n1` returned an RP-LC retention time of 705 s.

In turn, `CCCN1C(=O)COc2ccc(-c3noc(CNS(=O)(=O)c4ccccc4)n3)cc21` registered an RP-LC retention time of 888 s.

Compound `COc1ccc(NC(=O)c2cnc3c(c2)c(=O)n(C)c(=O)n3-c2ccccc2)cc1Cl` came in with an RP-LC retention time of 916 s.

Compound `COc1ccc(-n2nnc(C(=O)O)c2-c2ccncc2)cc1` yielded an RP-LC retention time of 592 s.

In the case of `Cc1ccc(NC(=O)C2CCN(C(=O)c3ncn4c3COC(c3ccc(F)cc3)C4)CC2)cc1` (stereo not drawn), the RP-LC retention time stood at 804 s.

The compound `CCC(C)Sc1nnc(-c2cn(C)nc2OC)n1CCOC` (stereo not drawn) displayed an RP-LC retention time of 634 s.

Compound `COCCNC(=O)Cn1nc2cc(C)nc(-c3ccc(C(F)(F)F)cc3)n2c1=O` displayed an RP-LC retention time of 726 s.

In turn, `CCCCN1C(=O)C(NC(=O)c2ccccc2OC)(C(F)(F)F)C(C(=O)OC)=C1C` (stereo not drawn) displayed an RP-LC retention time of 1070 s.

`CCOc1ccc2nc(NC(=O)CCN3C(=O)C4C5C=CC(C5)C4C3=O)sc2c1` (stereo not drawn) came in with an RP-LC retention time of 834 s.

For the compound `CCN1C(=O)c2cccnc2Sc2cc(CNC(=O)Cc3ccsc3)ccc21`, the RP-LC retention time amounted to 728 s.

As for `CC(C)(C)c1ccc(S(=O)(=O)c2nnn(-c3ccc4c(c3)OCCO4)c2N)cc1`, the RP-LC retention time came out at 944 s.

The compound `CCCn1ccc2oc(C)c(C(=O)NC(C)c3ccc(C)cc3C)c2c1=O` (stereo not drawn) registered an RP-LC retention time of 1190 s.

The compound `CC(Oc1ccccc1F)C(=O)Nc1nc(-c2ccc(S(=O)(=O)N3CCOCC3)cc2)cs1` (stereo not drawn) gave an RP-LC retention time of 1010 s.

Take `COc1ccc(Cn2c(=O)c3sccc3n(Cc3nc(-c4ccc(F)cc4)no3)c2=O)cc1`: the RP-LC retention time came out at 1080 s.

On to `CCc1nnc(-c2ccc3ccn(CC(=O)NCc4cc(OC)c(OC)c(OC)c4)c3c2)o1`, for which the RP-LC retention time amounted to 760 s.

On to `Oc1cccc(-c2nc3cnccn3c2Nc2ccc(Br)cc2)c1`, for which the RP-LC retention time worked out at 1020 s.

`CC(C)n1nc(-c2ccc3oc(N)nc3c2)c2c(N)ncnc21` yielded an RP-LC retention time of 628 s.

Consider `O=C(CSCCSCC(=O)Nc1ccccc1)Nc1ccccc1`, for which the RP-LC retention time is 775 s.

For the compound `Cc1nc(SCC(=O)Nc2ccc(Cl)cc2C(F)(F)F)cc(-c2ccccn2)n1`, the RP-LC retention time amounted to 1080 s.
